Source: ChEMBL document CHEMBL1132382 (J Med Chem, 1999)

Columns and labels:
Carbonic anhydrase 4 = molecular target: T1, Carbonic anhydrase 4 (Bos taurus, UniProt Q95323)
T1 sequence (Q95323 whole entry): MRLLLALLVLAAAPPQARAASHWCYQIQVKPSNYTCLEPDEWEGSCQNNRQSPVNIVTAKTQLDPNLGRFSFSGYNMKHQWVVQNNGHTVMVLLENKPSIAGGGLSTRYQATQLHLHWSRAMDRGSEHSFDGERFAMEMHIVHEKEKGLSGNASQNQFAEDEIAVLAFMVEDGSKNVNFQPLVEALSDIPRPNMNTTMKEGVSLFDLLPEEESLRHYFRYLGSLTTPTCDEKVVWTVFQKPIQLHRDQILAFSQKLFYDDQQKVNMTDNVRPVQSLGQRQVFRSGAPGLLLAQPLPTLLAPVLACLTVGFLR
Description: Inhibitory activity against bovine carbonic anhydrase IV (CA4), isolated from bovine lung microsomes

Carbonic anhydrase 1 = Carbonic anhydrase 1 (Homo sapiens, UniProt P00915)
Chain of Carbonic anhydrase 1 (P00915 whole entry): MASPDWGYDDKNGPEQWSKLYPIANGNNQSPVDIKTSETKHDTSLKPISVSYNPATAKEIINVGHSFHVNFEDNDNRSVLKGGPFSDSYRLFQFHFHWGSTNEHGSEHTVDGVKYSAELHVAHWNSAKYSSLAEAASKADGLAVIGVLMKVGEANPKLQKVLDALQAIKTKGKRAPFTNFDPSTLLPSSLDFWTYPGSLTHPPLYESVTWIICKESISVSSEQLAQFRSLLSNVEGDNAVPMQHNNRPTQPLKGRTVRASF
Description: Inhibitory activity against human recombinant carbonic anhydrase I (CA1)

[1] = not given; remark: listed apart in the source
[2] = octanol/water
Description: Partition coefficient (logD) (chloroform/buffer)

Row | SMILES | Ki (Carbonic anhydrase 4) | Ki (Carbonic anhydrase 1) | kin | kin [1] | logD [2]
1 | NCC(=O)NS(=O)(=O)c1nc2ccc(O)cc2s1 | 69 nM | 16 nM |  |  | 
2 | CNCC(=O)Nc1c(S(N)(=O)=O)cc(S(N)(=O)=O)c(Cl)c1Cl | 55 nM | 520 nM |  |  | 
3 | CNCC(=O)Nc1nccc(Nc2ccc(S(N)(=O)=O)cc2)n1 | 60 nM | 60 nM |  |  | 
4 | NCC(=O)NCC(=O)Nc1cc(Cl)c(S(N)(=O)=O)cc1S(N)(=O)=O | 54 nM | 360 nM |  |  | 
5 | NCC(=O)NCC(=O)NNc1ccc(S(N)(=O)=O)cc1 | 300 nM | 25200 nM |  |  | 
6 | NCC(=O)NS(=O)(=O)c1ccc(CO)cc1 | 180 nM | 1800 nM |  |  | 
7 | NCC(=O)NS(=O)(=O)c1nc2ccc(OCCO)cc2s1 | 23 nM | 9 nM |  |  | 
8 | NCC(=O)NCC(=O)NS(=O)(=O)c1ccc(CO)cc1 | 150 nM | 1500 nM |  |  | 
9 | NCC(=O)NCCc1ccc(S(N)(=O)=O)cc1 | 76 nM | 850 nM |  |  | 
10 | CNCC(=O)Nc1ccc(S(N)(=O)=O)cc1I | 70 nM | 560 nM |  |  | 
11 | CN(CC(=O)NS(=O)(=O)c1nc2ccc(O)cc2s1)C(=N)N | 15 nM | 11 nM |  |  | 
12 | NCC(=O)NNc1ccc(S(N)(=O)=O)cc1 | 300 nM | 25500 nM |  |  | 
13 | NCC(=O)NCC(=O)NCc1ccc(S(N)(=O)=O)cc1 | 75 nM | 1360 nM |  |  | 
14 | Cn1nc(S(N)(=O)=O)s/c1=N/C(=O)CNC(=O)CN | 44 nM | 280 nM |  |  | 
15 | CN(CC(=O)NNc1ccc(S(N)(=O)=O)cc1)C(=N)N | 245 nM | 20800 nM |  |  | 
16 | CNCC(=O)NS(=O)(=O)c1ccc(CCO)cc1 | 112 nM | 1300 nM |  |  | 
17 | CN(CC(=O)Nc1ccc(S(=O)(=O)Nc2ccc(S(N)(=O)=O)cc2)cc1)C(=N)N | 51 nM | 46 nM |  |  | 
18 | CN(CC(=O)Nc1ccc(S(=O)(=O)Nc2cccc(S(N)(=O)=O)c2)cc1)C(=N)N | 57 nM | 45 nM |  |  | 
19 | NCC(=O)NCC(=O)NS(=O)(=O)c1ccc(CCO)cc1 | 150 nM | 1500 nM |  |  | 
20 | CNCC(=O)NCCC(=O)Nc1nnc(S(N)(=O)=O)s1 | 9 nM | 21 nM |  |  | 
21 | CN(CC(=O)NS(=O)(=O)c1ccc(CO)cc1)C(=N)N | 89 nM | 1200 nM |  |  | 
22 | CNCC(=O)Nc1ccc(S(=O)(=O)/N=c2\sc(S(N)(=O)=O)nn2C)cc1 |  | 11 nM |  |  | 
23 | CNCC(=O)NNc1ccc(S(N)(=O)=O)cc1 | 280 nM | 22000 nM |  |  | 

Row | SMILES | Ki (Carbonic anhydrase 4) | Ki (Carbonic anhydrase 1) | kin | kin [1] | logD [2]
24 | CN(CC(=O)Nc1ccc(S(N)(=O)=O)cc1I)C(=N)N | 69 nM | 545 nM |  |  | 
25 | NCC(=O)Nc1ccc(S(N)(=O)=O)cc1I | 74 nM | 610 nM |  |  | 
26 | NCC(=O)NCC(=O)NS(=O)(=O)c1nc2ccc(O)cc2s1 | 62 nM | 12 nM |  |  | 
27 | CNCC(=O)Nc1ccc(S(N)(=O)=O)cc1F | 46 nM | 500 nM |  |  | 
28 | NCC(=O)NCC(=O)Nc1ccc(S(N)(=O)=O)cc1I | 71 nM | 590 nM |  |  | 
29 | Nc1ccc(S(=O)(=O)Nc2cccc(S(N)(=O)=O)c2)cc1 | 53 nM | 44 nM |  |  | 
30 | Cn1nc(S(N)(=O)=O)s/c1=N\S(=O)(=O)c1ccc(N)cc1 | 0.8 nM | 1 nM |  |  | 
31 | NCC(=O)Nc1ccc(S(=O)(=O)Nc2ccc(S(N)(=O)=O)cc2)cc1 | 86 nM | 62 nM |  |  | 
32 | CN(CC(=O)Nc1ccc(S(=O)(=O)/N=c2\sc(S(N)(=O)=O)nn2C)cc1)C(=N)N |  | 11 nM |  |  | 
33 | NCC(=O)NCC(=O)Nc1nccc(Nc2ccc(S(N)(=O)=O)cc2)n1 | 69 nM | 60 nM |  |  | 
34 | CN(CC(=O)Nc1ccc(S(N)(=O)=O)cc1Br)C(=N)N | 62 nM | 525 nM |  |  | 
35 | CNCC(=O)Nc1ccccc1S(N)(=O)=O | 205 nM | 20300 nM |  |  | 
36 | Cn1nc(S(N)(=O)=O)s/c1=N\S(=O)(=O)c1ccc(NC(=O)CNC(=O)CN)cc1 |  | 13 nM |  |  | 
37 | NCC(=O)NCC(=O)NCCC(=O)Nc1nnc(S(N)(=O)=O)s1 | 12 nM | 21 nM |  |  | 
38 | CNCC(=O)Nc1ccc2nc(S(N)(=O)=O)sc2c1 | 14 nM | 10 nM |  |  | 
39 | NCC(=O)NS(=O)(=O)c1ccc(CCO)cc1 | 155 nM | 1700 nM |  |  | 
40 | NCC(=O)Nc1ccccc1S(N)(=O)=O | 245 nM | 25000 nM |  |  | 
41 | CNCC(=O)Nc1ccc(S(N)(=O)=O)cc1 | 146 nM | 15000 nM |  |  | 
42 | NCC(=O)NCC(=O)Nc1ccc(S(N)(=O)=O)cc1F | 45 nM | 540 nM |  |  | 
43 | NCC(=O)Nc1ccc(S(=O)(=O)Nc2cccc(S(N)(=O)=O)c2)cc1 | 79 nM | 60 nM |  |  | 
44 | CNCC(=O)NS(=O)(=O)c1nc2ccc(O)cc2s1 | 30 nM | 11 nM |  |  | 
45 | Nc1nccc(Nc2ccc(S(N)(=O)=O)cc2)n1 | 154 nM |  |  |  | 

Next, values leading:

Row | Ki (Carbonic anhydrase 4) | Ki (Carbonic anhydrase 1) | kin | kin [1] | logD [2] | SMILES
46 | 70 nM | 335 nM |  |  |  | Cn1nc(S(N)(=O)=O)s/c1=N\C(=O)CN
47 | 40 nM | 53 nM |  |  |  | CN(CC(=O)Nc1nccc(Nc2ccc(S(N)(=O)=O)cc2)n1)C(=N)N
48 | 64 nM | 540 nM |  |  |  | CNCC(=O)Nc1ccc(S(N)(=O)=O)cc1Br
49 | 123 nM | 1500 nM |  |  |  | CNCC(=O)NS(=O)(=O)c1ccc(CO)cc1
50 | 61 nM | 51 nM |  |  |  | CNCC(=O)Nc1ccc(S(=O)(=O)Nc2cccc(S(N)(=O)=O)c2)cc1
51 | 177 nM | 16200 nM |  |  |  | CN(CC(=O)Nc1cccc(S(N)(=O)=O)c1)C(=N)N
52 | 205 nM | 20300 nM |  |  |  | CN(CC(=O)Nc1ccccc1S(N)(=O)=O)C(=N)N
53 | 75 nM | 61 nM |  |  |  | NCC(=O)Nc1nccc(Nc2ccc(S(N)(=O)=O)cc2)n1
54 | 82 nM | 1400 nM |  |  |  | NCC(=O)NCc1ccc(S(N)(=O)=O)cc1
55 | 175 nM |  |  |  |  | NCC(=O)Nc1ccc(S(N)(=O)=O)cc1
56 | 71 nM | 950 nM |  |  |  | CN(CC(=O)NCc1ccc(S(N)(=O)=O)cc1)C(=N)N
57 | 60 nM | 360 nM |  |  |  | NCC(=O)Nc1cc(Cl)c(S(N)(=O)=O)cc1S(N)(=O)=O
58 | 235 nM | 17000 nM |  |  |  | NCC(=O)NCC(=O)Nc1cccc(S(N)(=O)=O)c1
59 | 60 nM | 55 nM |  |  |  | NCC(=O)NCC(=O)Nc1ccc(S(=O)(=O)Nc2cccc(S(N)(=O)=O)c2)cc1
60 | 64 nM | 775 nM |  |  |  | CN(CC(=O)NCCc1ccc(S(N)(=O)=O)cc1)C(=N)N
61 | 70 nM | 800 nM |  |  |  | NCC(=O)NCC(=O)NCCc1ccc(S(N)(=O)=O)cc1
62 | 70 nM | 570 nM |  |  |  | NCC(=O)NCC(=O)Nc1ccc(S(N)(=O)=O)cc1Br
63 | 39 nM | 305 nM |  |  |  | CNCC(=O)Nc1nnc(S(N)(=O)=O)s1
64 | 65 nM | 550 nM |  |  |  | NCC(=O)NCC(=O)Nc1ccc(S(N)(=O)=O)cc1Cl
65 | 73 nM | 600 nM |  |  |  | NCC(=O)Nc1ccc(S(N)(=O)=O)cc1Br
66 | 42 nM | 310 nM |  |  |  | CN(CC(=O)Nc1cc(Cl)c(S(N)(=O)=O)cc1S(N)(=O)=O)C(=N)N
67 | 12 nM | 10 nM |  |  |  | CN(CC(=O)Nc1ccc2nc(S(N)(=O)=O)sc2c1)C(=N)N
68 | 15 nM | 10 nM |  |  |  | CNCC(=O)NS(=O)(=O)c1nc2ccc(OCCO)cc2s1

Row | Ki (Carbonic anhydrase 4) | Ki (Carbonic anhydrase 1) | kin | kin [1] | logD [2] | SMILES
69 | 74 nM | 965 nM |  |  |  | CNCC(=O)NCc1ccc(S(N)(=O)=O)cc1
70 | 66 nM | 54 nM |  |  |  | NCC(=O)NCC(=O)Nc1ccc(S(=O)(=O)Nc2ccc(S(N)(=O)=O)cc2)cc1
71 | 78 nM | 600 nM |  |  |  | NCC(=O)Nc1ccc(S(N)(=O)=O)cc1Cl
72 | 46 nM | 540 nM |  |  |  | NCC(=O)Nc1ccc(S(N)(=O)=O)cc1F
73 | 154 nM | 15000 nM |  |  |  | NCC(=O)NCC(=O)Nc1ccc(S(N)(=O)=O)cc1
74 | 140 nM | 14600 nM |  |  |  | CN(CC(=O)Nc1ccc(S(N)(=O)=O)cc1)C(=N)N
75 | 70 nM | 820 nM |  |  |  | CNCC(=O)NCCc1ccc(S(N)(=O)=O)cc1
76 | 62 nM | 510 nM |  |  |  | CNCC(=O)Nc1ccc(S(N)(=O)=O)cc1Cl
77 | 35 nM | 98 nM |  |  |  | CCN(C(=O)CN)C1CC(C)S(=O)(=O)c2sc(S(N)(=O)=O)cc21 (centres undefined)
78 | 50 nM |  |  |  |  | Nc1ccc(S(=O)(=O)Nc2ccc(S(N)(=O)=O)cc2)cc1
79 | 11 nM | 9 nM |  |  |  | CN(CC(=O)NS(=O)(=O)c1nc2ccc(OCCO)cc2s1)C(=N)N
80 | 240 nM | 23500 nM |  |  |  | NCC(=O)NCC(=O)Nc1ccccc1S(N)(=O)=O
81 | 195 nM | 16600 nM |  |  |  | CNCC(=O)Nc1cccc(S(N)(=O)=O)c1
82 | 60 nM | 510 nM |  |  |  | CN(CC(=O)Nc1ccc(S(N)(=O)=O)cc1Cl)C(=N)N
83 | 51 nM | 525 nM |  |  |  | CN(CC(=O)Nc1c(S(N)(=O)=O)cc(S(N)(=O)=O)c(Cl)c1Cl)C(=N)N
84 |  | 15 nM |  |  |  | Cn1nc(S(N)(=O)=O)s/c1=N\S(=O)(=O)c1ccc(NC(=O)CN)cc1
85 | 86 nM | 1000 nM |  |  |  | CN(CC(=O)NS(=O)(=O)c1ccc(CCO)cc1)C(=N)N
86 | 62 nM | 520 nM |  |  |  | NCC(=O)Nc1c(S(N)(=O)=O)cc(S(N)(=O)=O)c(Cl)c1Cl
87 | 64 nM | 16 nM |  |  |  | NCC(=O)NCC(=O)Nc1ccc2nc(S(N)(=O)=O)sc2c1
88 | 72 nM | 17 nM |  |  |  | NCC(=O)Nc1ccc2nc(S(N)(=O)=O)sc2c1
89 | 5 nM | 12 nM |  |  |  | CN(CC(=O)Nc1ccc(S(=O)(=O)Nc2nnc(S(N)(=O)=O)s2)cc1)C(=N)N
90 |  |  | 13 h⁻¹ | 1.9 h⁻¹ | 0.06 | CC(=O)/N=c1/sc(S(N)(=O)=O)nn1C [METHAZOLAMIDE]
